From patent US6121323A, “Bishydroxyureas” (3M Innovative Properties Company, priority 1997, dated 2000)

How the values were obtained:
[1] = tested on: Leukotriene C4 production in mouse peritoneal macrophages; experiment: In vitro mouse peritoneal macrophage Leukotriene C4 inhibition; assay type: cell-based; conditions: zymosan stimulated, read-out: Percent Inhibition
Procedure: IN VITRO MOUSE PERITONEAL MACROPHAGE LEUKOTRIENE C4 INHIBITION
The test described below measures the ability of compounds to inhibit the production of Leukotriene C4 in mouse peritoneal macrophages.
Mice (female, CD-1, weighing 25 g) are euthanized by exposure to carbon dioxide. The pertoneal cavity is exposed by peeling back the abdominal skin. A 5 mL portion of media (M199 containing 1% fetal bovine serum, 100 units/mL of penicillin, 100 μg/mL streptomycin, 20 units/mL of heparin and no glutamine) is injected into the exposed peritoneal cavity of each mouse. The lavage fluid is removed and pooled to yield proximately 1×10^6 macrophages/mL. A 2 mL portion of lavage fluid is added to each well of a 24 well sterile multidish and the marcophages are allowed to adhere to the plate for 2 hours at 37° C. in a 5% carbon dioxide atmosphere. The media is removed and each well is washed with 2 mL of phosphate buffered saline (PBS). A 1 mL portion of media, without heparin, but containing 5 μCi/mL of 3H-myoinositol is added to each well and the plates are incubated overnight at 37° C. in a 5% carbon dioxide atmosphere. The media is removed and the cells are washed twice with 2 mL portions of PBS. A 1 mL portion of Puck's saline formulation A containing 1 mM calcium chloride, 1 mM magnesium chloride and 10 mM lithium chloride is added to each well. (The Puck's formulation is made first as a 10× solution which contains 4 g of potassium chloride, 80 g of sodium chloride and 10 g of glucose per liter. The Puck's saline formulation A is made using 10 mL of the 10× Puck's formulation, 0.47 mL of 7.5% sodium bicarbonate and 2 mL of 1M N-2-hydroxyethylpiperazine-N'-2-ethanesulfonic acid per 100 mL.)
Compounds are dissolved in dimethyl sulfoxide. Compounds are tested at concentrations of 10, 1 and 0.1 μM. Each concentration is tested in duplicate.
A 1 μL portion of compound solution or vehicle (DMSO) is added to each well and the plates are incubated for 15 minutes at 37° C. in a 5% carbon dioxide atmosphere. Zymosan is then added to provide a final concentration of 50 μg/mL in each well and the plate is incubated for 1 to 2 hours at 37° C. in a 5% carbon dioxide atmosphere.
Following incubation 200 μL portions of media are transferred to 12×75 mm tubes. The tubes are either assayed immediately or stored at -20° C. until they can be assayed.
The media is assayed for the presence of Leukotriene C4 by radioimmunoassay which is performed according to the manufacturer's instructions (Advanced Magnetics; Cambridge, Mass.). Inhibition of LTC4 production is calculated as the ratio of the amount of LTC4 formed in the presence (LTC4 +cpd) and absence (LTC4 no cpd)of compound according to the equation below. [formula] IC50 values (concentration of compound producing a 50% inhibition of LTC4 production) are calculated by linear regression analysis of percentage inhibition versus log compound concentration plots.

[2] = tested on: Leukotriene B4 production in rat blood; experiment: Rat ex vivo Leukotriene B4 inhibition; assay type: in vivo; conditions: 50 mg/Kg oral, 2 hours post dose, ex vivo A23187 challenge
Procedure: RAT EX VIVO LEUKOTRIENE B4 INHIBITION
The test method described below measures the ability of a compound when administrated orally to rats to inhibit the production of Leukotriene B4 in their blood which is drawn and challenged.
Rats (CD, male, non-fasted, 250 g) are lightly anesthetized with carbon dioxide and an approximately 0.75 mL sample of whole blood is obtained via cardiac puncture. The sample is dispensed into 12×75 mm polypropylene tubes containing 8-10 μL of 10,000 units/mL heparin, mixed and then maintained on ice. The rats are allowed to recover approximately one hour then dosed orally with compound dissolved in PEG 400 at a 5 mL/Kg volume. Five (5) rats are utilized per group. Two (2) hours post dose the rats are again anesthetized with carbon dioxide and the blood sampled again via cardiac puncture.
Duplicate 200 μL portions of blood are added to 1.0 mL polypropylene tubes. A 10 μL portion of 1 mM A23 187 Calcium Ionophore in dimethyl sulfoxide/Tris buffer is added to each tube. The tubes are gently vortexed then incubated in a 37° C. water bath for 30 minutes. The tubes are then centrifuged at 4000 rpm for 10 minutes. 50 μL portions of plasma are transferred to 1.0 mL tubes containing 200 μL of methanol. The tubes are vortexed then placed in the freezer overnight.
The tubes are removed from the freezer then centrifuged at 4000 rpm for 10 minutes. 20 μL portions of the methanol/plasma supernatant and 10 μl methanol dilutions of LTB4 standard are transferred to 96 well v-bottom microtiter plates. The plates are vacuum dried at 40° C. A 40 μL portion of LTB4 radioimmunoassay buffer is added to each well. The plate is bath sonicated for 5 minutes then assayed according to the manufacturer's instructions (Advanced Magnetics; Cambridge, Mass.). Percent inhibition values are obtained by comparing the level of LTB4 in the post-dose samples to the level in the pre-dose samples according to the equation below. [formula]

Row | SMILES | inhibition at 0.1 µM [1] [%] | inhibition at 1 µM [1] [%] | inhibition at 10 µM [1] [%] | inhibition in vivo at 50 mg/kg [2] [%]
1 | CCc1cc(Cc2cc(CC)c(NC(=O)N(C)O)c(CC)c2)cc(CC)c1NC(=O)N(C)O [Example 4, 4,4'-Methylenebis(1-hydroxy-1-methyl-3-(2,6-diethylphenyl)urea)] | -24 | 6 | 67 | –
2 | CN(O)C(=O)Nc1ccc(C(c2ccc(NC(=O)N(C)O)cc2)(C(F)(F)F)C(F)(F)F)cc1 [Example 5, 4,4'-(2,2-Hexafluoropropane)bis(1-hydroxy-1-methyl-3-phenylurea)] | 91 | 100 | 100 | –
3 | CN(O)C(=O)Nc1ccc(Oc2ccc(NC(=O)N(C)O)cc2)cc1 [Example 6, 4,4'-Oxybis(1-hydroxy-1-methyl-3-phenylurea)] | 48 | 99 | 99 | –
4 | CN(O)C(=O)Nc1cccc(NC(=O)N(C)O)c1 [Example 7, 1,1'-(m-Phenylene)bis(3-hydroxy-3-methylurea)] | -19 | 7 | 98 | 59
5 | CN(O)C(=O)Nc1cccc2c(NC(=O)N(C)O)cccc12 [Example 8, 1,1'-(1,5-Naphthalene)bis(3-hydroxy-3-methylurea)] | 55 | 76 | 91 | –
6 | CN(O)C(=O)N[C@H]1CC[C@H](NC(=O)N(C)O)CC1 [Example 9, trans-1,4-Cyclohexanebis(3-hydroxy-3-methylurea)] | 1 | 1 | -6 | 4
7 | O=C(NCCCCCCNC(=O)N(O)Cc1ccccc1)N(O)Cc1ccccc1 [Example 10, 1,1'-Hexamethylenebis(3-hydroxy-3-benzylurea)] | 7 | 94 | 94 | 8
8 | COc1cc(-c2ccc(NC(=O)N(C)O)c(OC)c2)ccc1NC(=O)N(C)O [Example 11] | 42 | 100 | 99 | 4
